Laboratory results: patent US8192962B2, “Processes for detecting toxic substances” (Daikin Industries, Ltd., priority 2001, dated 2012)

System: Detoxification protein genes
Assay: DNA chip mRNA expression in yeast, detoxification protein genes (Table 8)
Type: cell-based, Saccharomyces cerevisiae S288C
Outline: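 Cells were grown at 25° C. in YPD, treated at logarithmic phase for 2 h with a chemical at a concentration inhibiting growth but not causing death, and compared with untreated cultures. Labeled cDNA was hybridized to a DNA chip carrying all yeast genes, and the expression ratio was taken from scanner fluorescence.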

## Na2As [(1)]
Yeast gene YBR244W
  The level of expressed mRNA in the presence of chemical substance/The level of expressed mRNA in the absence of chemical substance: 0.6
Yeast gene YBR293W
  The level of expressed mRNA in the presence of chemical substance/The level of expressed mRNA in the absence of chemical substance: 1.9
Yeast gene YCL035C
  The level of expressed mRNA in the presence of chemical substance/The level of expressed mRNA in the absence of chemical substance: 2.0
Yeast gene YCL069W
  The level of expressed mRNA in the presence of chemical substance/The level of expressed mRNA in the absence of chemical substance: 0.9
Yeast gene YCR083W
  The level of expressed mRNA in the presence of chemical substance/The level of expressed mRNA in the absence of chemical substance: 1.1
Yeast gene YDL100C
  The level of expressed mRNA in the presence of chemical substance/The level of expressed mRNA in the absence of chemical substance: 1.0
Yeast gene YDL168W
  The level of expressed mRNA in the presence of chemical substance/The level of expressed mRNA in the absence of chemical substance: 2.3
Yeast gene YDR256C
  The level of expressed mRNA in the presence of chemical substance/The level of expressed mRNA in the absence of chemical substance: 0.8
Yeast gene YDR453C
  The level of expressed mRNA in the presence of chemical substance/The level of expressed mRNA in the absence of chemical substance: 1.1
Yeast gene YDR513W
  The level of expressed mRNA in the presence of chemical substance/The level of expressed mRNA in the absence of chemical substance: 2.2
Yeast gene YDR538W
  The level of expressed mRNA in the presence of chemical substance/The level of expressed mRNA in the absence of chemical substance: 0.9
Yeast gene YEL027W
  The level of expressed mRNA in the presence of chemical substance/The level of expressed mRNA in the absence of chemical substance: 1.2
Yeast gene YEL065W
  The level of expressed mRNA in the presence of chemical substance/The level of expressed mRNA in the absence of chemical substance: 0.3
Yeast gene YER185W
  The level of expressed mRNA in the presence of chemical substance/The level of expressed mRNA in the absence of chemical substance: 2.0
Yeast gene YFL050C
  The level of expressed mRNA in the presence of chemical substance/The level of expressed mRNA in the absence of chemical substance: 0.7
Yeast gene YGL013C
  The level of expressed mRNA in the presence of chemical substance/The level of expressed mRNA in the absence of chemical substance: 0.9
Yeast gene YGL254W
  The level of expressed mRNA in the presence of chemical substance/The level of expressed mRNA in the absence of chemical substance: 1.2
Yeast gene YGR088W
  The level of expressed mRNA in the presence of chemical substance/The level of expressed mRNA in the absence of chemical substance: 1.3
Yeast gene YGR138C
  The level of expressed mRNA in the presence of chemical substance/The level of expressed mRNA in the absence of chemical substance: 1.1
Yeast gene YGR197C
  The level of expressed mRNA in the presence of chemical substance/The level of expressed mRNA in the absence of chemical substance: 1.1
Yeast gene YGR209C
  The level of expressed mRNA in the presence of chemical substance/The level of expressed mRNA in the absence of chemical substance: 1.6
Yeast gene YGR224W
  The level of expressed mRNA in the presence of chemical substance/The level of expressed mRNA in the absence of chemical substance: 0.9
Yeast gene YHL040C
  The level of expressed mRNA in the presence of chemical substance/The level of expressed mRNA in the absence of chemical substance: 1.6
Yeast gene YHL047C
  The level of expressed mRNA in the presence of chemical substance/The level of expressed mRNA in the absence of chemical substance: 0.6
Yeast gene YHR008C
  The level of expressed mRNA in the presence of chemical substance/The level of expressed mRNA in the absence of chemical substance: 1.3
Yeast gene YHR048W
  The level of expressed mRNA in the presence of chemical substance/The level of expressed mRNA in the absence of chemical substance: 2.5
Yeast gene YHR053C
  The level of expressed mRNA in the presence of chemical substance/The level of expressed mRNA in the absence of chemical substance: 3.5
Yeast gene YHR055C
  The level of expressed mRNA in the presence of chemical substance/The level of expressed mRNA in the absence of chemical substance: 4.4
Yeast gene YIR002C
  The level of expressed mRNA in the presence of chemical substance/The level of expressed mRNA in the absence of chemical substance: 0.8
Yeast gene YIR038C
  The level of expressed mRNA in the presence of chemical substance/The level of expressed mRNA in the absence of chemical substance: 1.3
Yeast gene YJL101C
  The level of expressed mRNA in the presence of chemical substance/The level of expressed mRNA in the absence of chemical substance: 2.1
Yeast gene YJR104C
  The level of expressed mRNA in the presence of chemical substance/The level of expressed mRNA in the absence of chemical substance: 1.4
Yeast gene YKL026C
  The level of expressed mRNA in the presence of chemical substance/The level of expressed mRNA in the absence of chemical substance: 2.7
Yeast gene YKL064W
  The level of expressed mRNA in the presence of chemical substance/The level of expressed mRNA in the absence of chemical substance: 0.6
Yeast gene YKR066C
  The level of expressed mRNA in the presence of chemical substance/The level of expressed mRNA in the absence of chemical substance: 0.9
Yeast gene YKR105C
  The level of expressed mRNA in the presence of chemical substance/The level of expressed mRNA in the absence of chemical substance: 0.8
Yeast gene YKR106W
  The level of expressed mRNA in the presence of chemical substance/The level of expressed mRNA in the absence of chemical substance: 1.3
Yeast gene YLL028W
  The level of expressed mRNA in the presence of chemical substance/The level of expressed mRNA in the absence of chemical substance: 0.6
Yeast gene YLL057C
  The level of expressed mRNA in the presence of chemical substance/The level of expressed mRNA in the absence of chemical substance: 2.2
Yeast gene YLL060C
  The level of expressed mRNA in the presence of chemical substance/The level of expressed mRNA in the absence of chemical substance: 12.5
Yeast gene YLR043C
  The level of expressed mRNA in the presence of chemical substance/The level of expressed mRNA in the absence of chemical substance: 1.4
Yeast gene YLR046C
  The level of expressed mRNA in the presence of chemical substance/The level of expressed mRNA in the absence of chemical substance: 0.7
Yeast gene YML028W
  The level of expressed mRNA in the presence of chemical substance/The level of expressed mRNA in the absence of chemical substance: 1.0
Yeast gene YML116W
  The level of expressed mRNA in the presence of chemical substance/The level of expressed mRNA in the absence of chemical substance: 4.1
Yeast gene YMR015C
  The level of expressed mRNA in the presence of chemical substance/The level of expressed mRNA in the absence of chemical substance: 0.7
Yeast gene YMR038C
  The level of expressed mRNA in the presence of chemical substance/The level of expressed mRNA in the absence of chemical substance: 1.9
Yeast gene YNL239W
  The level of expressed mRNA in the presence of chemical substance/The level of expressed mRNA in the absence of chemical substance: 1.0
Yeast gene YNL241C
  The level of expressed mRNA in the presence of chemical substance/The level of expressed mRNA in the absence of chemical substance: 1.3
Yeast gene YNL259C
  The level of expressed mRNA in the presence of chemical substance/The level of expressed mRNA in the absence of chemical substance: 1.6
Yeast gene YOL158C
  The level of expressed mRNA in the presence of chemical substance/The level of expressed mRNA in the absence of chemical substance: 0.7
Yeast gene YOR031W
  The level of expressed mRNA in the presence of chemical substance/The level of expressed mRNA in the absence of chemical substance: 2.6
Yeast gene YOR153W
  The level of expressed mRNA in the presence of chemical substance/The level of expressed mRNA in the absence of chemical substance: 1.6
Yeast gene YOR247W
  The level of expressed mRNA in the presence of chemical substance/The level of expressed mRNA in the absence of chemical substance: 1.7
Yeast gene YOR251C
  The level of expressed mRNA in the presence of chemical substance/The level of expressed mRNA in the absence of chemical substance: 1.1
Yeast gene YOR273C
  The level of expressed mRNA in the presence of chemical substance/The level of expressed mRNA in the absence of chemical substance: 0.7
Yeast gene YPL163C
  The level of expressed mRNA in the presence of chemical substance/The level of expressed mRNA in the absence of chemical substance: 0.6
Yeast gene YPR200C
  The level of expressed mRNA in the presence of chemical substance/The level of expressed mRNA in the absence of chemical substance: 47.7
